GI50 and TGI data for eight compounds are collected here from PubChem BioAssay (NCI).

Some test systems named below: SN12C renal; HOP-92 NSCLC; A498 renal; SF-539 CNS; SNB-75 CNS; SK-MEL-2 melanoma; HT29 colon; TK-10 renal; SF-295 CNS; MDA-MB-231 breast.
Test in all cases: DTP human tumour cell line panel, 48 h

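Protocol summary: plate cells (96-well), add compound at 5 concentrations, incubate 48 h, interpolate endpoints linearly. At the GI50, growth is halved. TGI: concentration producing complete growth inhibition.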 Some results are limits rather than exact numbers.

By GI50 is commonly meant the concentration giving 50% growth inhibition. The TGI is the concentration giving total growth inhibition. A low value points to greater sensitivity of the cells. Consider `CCN(CC)Cc1cc(Nc2ccnc3ccc(OC)cc23)ccc1O`, for which the GI50 in the test on SN12C renal is 3.57 µM; in the test on HOP-92 NSCLC, 2.04 µM; in the test with A498 renal, 2.75 µM; in the test on SF-539 CNS, 2.17 µM; in the test on SNB-75 CNS it was 4.88 µM; with SK-MEL-2 melanoma, 2.94 µM. Further, the GI50 with HT29 colon was 1.81 µM; in the test with TK-10 renal, 3.1 µM; with SF-295 CNS it was 2.39 µM; in the test on MDA-MB-231 breast it was 4.76 µM. Moreover, the total growth inhibition concentration (TGI) was found to be 20.6 µM in the test with SN12C renal; 7.13 µM with HOP-92 NSCLC; 12.5 µM in the test with A498 renal; 4.84 µM in the test with SF-539 CNS; 18.8 µM in the test with SNB-75 CNS; 5.5 µM with SK-MEL-2 melanoma. Moreover, the total growth inhibition concentration (TGI) is 4.45 µM in the test with HT29 colon, 8.43 µM with TK-10 renal, 7.64 µM in the test with SF-295 CNS and 31.2 µM in the test on MDA-MB-231 breast.
For `Cc1ncnc2c1ccn2[C@@H]1C[C@H](Oc2cc(C(F)F)c(F)c3c2CNCC3)[C@@H](O)[C@H]1O`, the GI50 in the test on SN12C renal was greater than 100 µM; with HOP-92 NSCLC, 4.68 µM; with A498 renal, greater than 100 µM; with SF-539 CNS, greater than 100 µM; in the test with SNB-75 CNS, greater than 100 µM; in the test with SK-MEL-2 melanoma it was greater than 100 µM. Also, the GI50 with HT29 colon, in the test with TK-10 renal, in the test on SF-295 CNS and in the test with MDA-MB-231 breast was greater than 100 µM throughout. Also, the TGI with SN12C renal, in the test on HOP-92 NSCLC, with A498 renal, in the test on SF-539 CNS, in the test with SNB-75 CNS and with SK-MEL-2 melanoma was greater than 100 µM each time. Moreover, the total growth inhibition concentration (TGI) with HT29 colon, in the test on TK-10 renal, in the test on SF-295 CNS and with MDA-MB-231 breast was greater than 100 µM each time.
Regarding `CC[C@]1(O)CC2CN(CCc3c([nH]c4ccccc34)C(C(=O)OC)(c3cc4c(cc3OC)N(C=O)[C@H]3[C@@](O)(C(=O)OC)[C@H](OC(C)=O)[C@]5(CC)[C@@H]6C[C@@H]6CN6CC[C@]43[C@@H]65)C2)C1` (stereo not given in full), the GI50 in the test on SN12C renal, with HOP-92 NSCLC, in the test with A498 renal, with SF-539 CNS, in the test on SNB-75 CNS and in the test with SK-MEL-2 melanoma was less than 0.00325 µM in each case. Further, the GI50 in the test on HT29 colon, in the test on TK-10 renal, in the test with SF-295 CNS and in the test with MDA-MB-231 breast was less than 0.00325 µM in each case. In addition, the total growth inhibition concentration (TGI) with SN12C renal is greater than 32.5 µM; with HOP-92 NSCLC, 0.0121 µM; in the test on A498 renal, 0.00882 µM; in the test on SF-539 CNS it was less than 0.00325 µM; with SNB-75 CNS, 13.4 µM; in the test on SK-MEL-2 melanoma it was 3.67 µM. In addition, the TGI worked out at 0.033 µM in the test with HT29 colon, 17.5 µM in the test with TK-10 renal, 0.325 µM in the test with SF-295 CNS and 0.191 µM in the test with MDA-MB-231 breast.
As to `CCN1C[C@@H](C)n2c(c(O)c3c(=O)n(Cc4ccc(F)c(Cl)c4)nc(C(=O)NC)c32)C1=O`, the GI50 was 3.08 µM in the test on SN12C renal; 1.7 µM in the test with HOP-92 NSCLC; 1.43 µM with A498 renal; 2.32 µM with SF-539 CNS; 2.28 µM in the test on SNB-75 CNS; 2.11 µM in the test on SK-MEL-2 melanoma. Further, the GI50 in the test on HT29 colon was 3.9 µM; in the test on TK-10 renal it was 2.95 µM; in the test with SF-295 CNS it was 2.88 µM; with MDA-MB-231 breast it was 2.64 µM. In addition, the TGI in the test with SN12C renal was greater than 100 µM; in the test with HOP-92 NSCLC, 4.91 µM; in the test on A498 renal it was 4.55 µM; in the test with SF-539 CNS, 5.37 µM; with SNB-75 CNS, 7.12 µM; in the test on SK-MEL-2 melanoma, 4.53 µM. The TGI was 15.5 µM in the test with HT29 colon, 12.6 µM with TK-10 renal, greater than 100 µM with SF-295 CNS and 7.36 µM with MDA-MB-231 breast.
With `CCc1nc(N)nc(N)c1-c1ccc(N2CCNCC2)c([N+](=O)[O-])c1`, the TGI with SN12C renal was greater than 100 µM; in the test on HOP-92 NSCLC, greater than 100 µM; with A498 renal, greater than 100 µM; with SF-539 CNS it was greater than 100 µM; in the test with SNB-75 CNS, greater than 95.8 µM; in the test on SK-MEL-2 melanoma, greater than 90.5 µM. Further, the TGI in the test with HT29 colon was greater than 100 µM; in the test on TK-10 renal, greater than 100 µM; in the test on SF-295 CNS, greater than 100 µM; in the test on MDA-MB-231 breast it was 69.2 µM.
`C=CCc1cc(O)ccc1O`: the GI50 with SN12C renal is 11 µM; in the test with HOP-92 NSCLC, 42.4 µM; in the test on A498 renal it was greater than 100 µM; in the test with SF-539 CNS, 14.2 µM; in the test on SNB-75 CNS it was 5.74 µM; in the test with SK-MEL-2 melanoma, 85.5 µM. In addition, the GI50 in the test on HT29 colon is 80.2 µM; with TK-10 renal it was 24.9 µM; in the test on SF-295 CNS, 49.5 µM; in the test with MDA-MB-231 breast, 14.1 µM. Moreover, the total growth inhibition concentration (TGI) is 49.4 µM with SN12C renal; greater than 100 µM with HOP-92 NSCLC; greater than 100 µM in the test with A498 renal; 70.2 µM with SF-539 CNS; greater than 100 µM in the test with SNB-75 CNS; greater than 100 µM in the test on SK-MEL-2 melanoma. Besides, the total growth inhibition concentration (TGI) in the test with HT29 colon was greater than 100 µM; in the test on TK-10 renal it was 69.2 µM; in the test on SF-295 CNS, greater than 100 µM; in the test on MDA-MB-231 breast, greater than 100 µM.
For the compound `O=C(NNC1=NS(=O)(=O)c2ccccc2N1c1ccccc1)c1cnccn1`, the GI50 with SN12C renal, in the test with HOP-92 NSCLC, in the test on A498 renal, with SF-539 CNS, in the test with SNB-75 CNS and in the test with SK-MEL-2 melanoma was greater than 100 µM in each case. For the same compound, the GI50 in the test on HT29 colon, in the test on TK-10 renal, in the test on SF-295 CNS and with MDA-MB-231 breast was greater than 100 µM each time. For the same compound, the TGI with SN12C renal, in the test on HOP-92 NSCLC, in the test with A498 renal, with SF-539 CNS, in the test with SNB-75 CNS and in the test with SK-MEL-2 melanoma was greater than 100 µM each time. Further, the concentration for total growth inhibition (TGI) in the test on HT29 colon, in the test on TK-10 renal, in the test with SF-295 CNS and with MDA-MB-231 breast was greater than 100 µM each time.
With `CCN(CC)CCOc1ccc(/C(=C(\C)Cc2ccc(OC)cc2)c2ccc(O)cc2)cc1`, the GI50 is 1.53 µM in the test on SN12C renal; 0.588 µM in the test with HOP-92 NSCLC; 1.38 µM in the test with A498 renal; 1.75 µM in the test with SF-539 CNS; 1.58 µM in the test with SNB-75 CNS; 1.94 µM in the test on SK-MEL-2 melanoma. The GI50 was 1.43 µM in the test on HT29 colon, 1.82 µM in the test on TK-10 renal, 1.69 µM in the test with SF-295 CNS and 1.71 µM with MDA-MB-231 breast. Moreover, the TGI with SN12C renal amounted to 3.03 µM; in the test on HOP-92 NSCLC, 2.61 µM; in the test with A498 renal it was 4.81 µM; in the test on SF-539 CNS, 3.24 µM; with SNB-75 CNS, 3.38 µM; in the test on SK-MEL-2 melanoma, 3.71 µM. Besides, the total growth inhibition concentration (TGI) came out at 3.67 µM with HT29 colon, 3.68 µM in the test on TK-10 renal, 3.3 µM in the test on SF-295 CNS and 3.26 µM with MDA-MB-231 breast.
